Measured values as given in US20260137678A1, “METHODS FOR TREATING OR PREVENTING NEUROENDOCRINE TUMOR FORMATION USING XPO1 INHIBITORS” (priority 2022, published 2026).

What was measured:
[1] = tested on: MSK_Lx151 PDX; format: in vivo
Description: FIGS. 4A-4I: Exportin 1 inhibition interferes with NE transformation. In vivo treatment of cell line xenografts for TP53/RB1 DKO 22PC (FIG. 4A) and LnCap/AR (FIG. 4D) PRAD cells with enzalutamide, selinexor or their combination. 5-10 female (22PC) or male (LnCap/AR) 6-week-old athymic nude mice were subcutaneously engrafted per treatment arm and until tumors reached 100-150 mm^3. At that point, mice were randomized into groups and treated with either vehicle (n=7 for 22PC and n=4 for LnCap/AR), selinexor (10 mg/kg p.o. QDx3, n=7 for 22PC and n=4 for LnCap/AR), enzalutamide (10 mg/kg p.o. QDx5, n=7 for 22PC and n=5 for LnCap/AR), or the combinations of enzalutamide+selinexor at the previously mentioned doses (n=9 for 22PC and n=5 for LnCap/AR). Mice weights and tumor volumes were measured twice a week and mice were sacrificed when tumors reached humane endpoint (volume=1000 mm^3). Tumor volumes are shown as normalized volume in arbitrary units (au). Each tumor was normalized to its volume at day 0 of treatment. Representative IHC images for synaptophysin (SYP) and chromogranin A (CHGA) staining in DKO 22PC (FIG. 4B) and LnCap/AR (FIG. 4E) tumors. Quantification of SYP- or CHGA-positive cells, normalized to tissue area, in immunohistochemical tissue stains in DKO 22PC (n=6, 5, 4 and 4 tumor for control, selinexor-, enzalutamide and combo-treated arms, respectively) (FIG. 4C) and LnCap/AR (FIG. 4F) (n=5, 5, 6 and 6 randomly selected tissue pieces for control, selinexor-, enzalutamide and combo-treated arms, respectively) tumors. Positive cells were counted, tissue area (viable tumor area) was estimated using the SketchAndCalc online app (https://www.sketchandcalc.com/), and positive-stained cells were normalized by estimated area. […] Mice weights and tumor volumes were measured twice a week and mice were sacrificed when tumors reached humane endpoint (volume=1000 mm^3). […] For FIGS. 4A, 4C, 4D and 4F, P-values were calculated using the Student's t-test (unpaired, heterogeneous variances, two-tailed). […]

[2] = tested on: DKO 22PC and DKO LnCap/AR cells; experiment: NE marker, AR and SOX2 expression in DKO cells treated in vitro; format: cell-based; conditions: enzalutamide 150 nM, selinexor 5 nM or combination, 4 days; absence of exogenous SOX2
[3] = tested on: control and TP53/RB1-inactivated LnCap/AR (PRAD) cells; experiment: Monotherapy cytotoxicity assay (CellTiter-Glo viability); format: cell-based; conditions: 5 nM selinexor; TP53/RB1 inactivation relative to wild-type controls
Description: FIGS. 2A-2E. Loss of TP53/RB1 function induces exportin 1 expression and sensitivity to selinexor. FIG. 2A: XPO1 mRNA expression in LUAD clinical specimens, categorized by their TP53/RB1 status. Data obtained from LUAD TCGA (PanCancer, n=237 wild type (wt), 33 mutated), LUAD OncoSG (OncoSG, Nat Genetics 2020, n=109 wt, 6 mutated) and PRAD TCGA (PanCancer, n=367 wt, 6 mutated)^14,15. FIG. 2B: Western blot showing exportin 1 protein abundance in isogenic H1563 (LUAD) and 22PC (PRAD) cell lines with or without induced loss of function of TP53 and/or RB1 and western blot quantification (n=2) (see methods). FIG. 2C: Barplot showing a representative biological replicate of an experiment assessing viability of control and TP53/RB1-loss (DKO) H1563, 22PC and LnCap (PRAD) cells treated with 5 nM selinexor. […] For FIGS. 2B-2C, p-values were calculated using the Student's t-test (unpaired, heterogeneous variances, two-tailed). p-value legend: *<0.05, **<0.01, ***<0.001. […]
Cytotoxic assays were performed as described in^22 with a total of 1,500 cells/well seeded in 96-well plates and treated with the drugs/doses described for 96 hours. Viability was assessed with the CellTiter-Glo 2.0 Assay (Promega, G9242) as indicated by manufacturer, and normalized to the untreated control wells.

O=C(/C=C\n1cnc(-c2cc(C(F)(F)F)cc(C(F)(F)F)c2)n1)NNc1cnccn1 [selinexor]
T/C at control arm endpoint ([1]; osimertinib 25 mg/kg p.o. QDx5, selinexor 10 mg/kg p.o. QDx3, combination at same doses): 57.67% | SOX2 protein upregulation induced by targeted therapy (western blot) ([1]; selinexor added to osimertinib): suppressed | NE marker and AR expression [2]: prevent enzalutamide-induced NE marker expression and AR suppression | selinexor sensitivity (viability) [3]: increased selinexor sensitivity
